From US7098199B2 (Sterix Limited, priority 1991, dated 2006)
Where two headings read alike, the source gives them in different places. One block for each molecule: values may come before it.

How the values were obtained:
[1] = molecular target: T1, oestrone sulphatase (Homo sapiens, UniProt P08842); format: cell-based
T1 sequence (P08842 22-583): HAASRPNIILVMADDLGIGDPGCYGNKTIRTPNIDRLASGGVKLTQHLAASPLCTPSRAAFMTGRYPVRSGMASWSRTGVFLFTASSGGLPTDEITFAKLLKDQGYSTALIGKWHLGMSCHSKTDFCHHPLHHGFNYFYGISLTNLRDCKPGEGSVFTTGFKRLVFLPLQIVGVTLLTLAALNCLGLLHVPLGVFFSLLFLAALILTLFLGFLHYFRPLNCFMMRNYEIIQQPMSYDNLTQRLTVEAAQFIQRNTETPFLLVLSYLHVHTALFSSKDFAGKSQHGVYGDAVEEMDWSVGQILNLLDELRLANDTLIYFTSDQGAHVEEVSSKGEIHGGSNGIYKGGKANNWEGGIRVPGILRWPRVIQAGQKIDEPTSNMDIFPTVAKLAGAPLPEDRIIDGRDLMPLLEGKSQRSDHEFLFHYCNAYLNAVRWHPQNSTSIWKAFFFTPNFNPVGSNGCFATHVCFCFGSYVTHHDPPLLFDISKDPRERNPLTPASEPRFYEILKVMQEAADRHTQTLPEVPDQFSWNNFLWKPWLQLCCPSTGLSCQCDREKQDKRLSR

[2] = molecular target: T1, oestrone sulphatase; experiment: Oestrone sulphatase inhibition in placental microsomes by flavanoid sulphamates; format: biochemical
[3] = molecular target: T1, oestrone sulphatase
[4] = molecular target: T2, Steroid sulphatase (Steryl Sulphatase EC3.1.6.2) (Homo sapiens, UniProt P08842); experiment: Steroid sulphatase activity in intact MCF-7 cells; format: cell-based; details: for inhibition at 10 µM: MCF7; for Steroid Sulphatase Activity: mean ± 1 S.D.
T2 construct: endogenous in cells; host or cells: MCF-7 human breast cancer cells
T2 sequence (P08842 22-583): T1 sequence (P08842 22-583)
Description: Steroid sulphatase is defined as: Steryl Sulphatase EC3.1.6.2.
Steroid sulphatase activity was measured in vitro using intact MCF-7 human breast cancer cells. This hormone dependent cell line is widely used to study the control of human breast cancer cell growth. […] Cells were maintained in Minimal Essential Medium (MEM) (Flow Laboratories, Irvine, Scotland) containing 20 mM HEPES, 5% foetal bovine serum, 2 mM glutamine, nonessential amino acids and 0.075% sodium bicarbonate. Up to 30 replicate 25 cm^2 tissue culture flasks were seeded with approximately 1×10^5 cells/flask using the above medium. Cells were grown to 80% confluency and medium was changed every third day.
Each batch of experiments included incubations of microsomes prepared from a sulphatase-positive human placenta (positive control) and flasks without cells (to assess apparent non-enzymatic hydrolysis of the substrate). The number of cell nuclei per flask was determined using a Coulter Counter after treating the cell monolayers with Zaponin. One flask in each batch was used to assess cell membrane status and viability using the Trypan Blue exclusion method (Phillips, H. J. (1973) In: Tissue culture and applications,[eds: Kruse, D. F. & Patterson, M. K.]; pp. 406–408; Academic Press, New York).
Unpaired Student's t-test was used to test the statistical significance of results.
An identical experimental protocol to that described in Example 4 was used to generate results for oestrone-3-N,N-diimethylsulphamate except that incubations contained oestrone-3-N,N-dimethylsulphaiate (5 concentrations: 0; 0.001 μM; 0.01 μM; 0.1 μM; 1 μM) in place of oestrone-3-sulphamate.

[5] = molecular target: T3, Steroid sulphatase (Homo sapiens, UniProt P08842); experiment: Steroid sulphatase activity in placental microsomes; details: 10 μM
T3 sequence (P08842 22-583): T1 sequence (P08842 22-583)

[6] = molecular target: T4, Steroid sulphatase (Rattus norvegicus, UniProt P15589); experiment: % inhibition in vivo from a single dose (Example 9); design: from tissue; host or cells: tissue of treated animals; tissue not given; details: single dose of 10 mg/kg
T4 sequence (P15589 20-577): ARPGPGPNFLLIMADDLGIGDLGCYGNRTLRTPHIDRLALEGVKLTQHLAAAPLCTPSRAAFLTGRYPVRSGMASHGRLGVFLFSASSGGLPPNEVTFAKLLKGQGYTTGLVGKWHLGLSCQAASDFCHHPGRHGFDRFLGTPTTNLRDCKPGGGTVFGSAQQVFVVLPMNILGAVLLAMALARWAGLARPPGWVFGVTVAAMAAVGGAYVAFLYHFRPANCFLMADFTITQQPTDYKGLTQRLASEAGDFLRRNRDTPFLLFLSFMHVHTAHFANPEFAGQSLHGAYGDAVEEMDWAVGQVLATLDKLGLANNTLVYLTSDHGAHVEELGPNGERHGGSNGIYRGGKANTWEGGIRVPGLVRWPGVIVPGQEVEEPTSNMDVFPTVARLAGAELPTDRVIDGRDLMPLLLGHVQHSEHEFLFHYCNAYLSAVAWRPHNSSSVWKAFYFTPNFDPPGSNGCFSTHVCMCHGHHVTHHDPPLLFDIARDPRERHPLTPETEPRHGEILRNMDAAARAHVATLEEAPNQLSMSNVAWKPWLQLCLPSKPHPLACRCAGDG

[7] = molecular target: T2, Steroid sulphatase (Steryl Sulphatase EC3.1.6.2); experiment: Steroid sulphatase activity in MCF-7 cells pre-incubated with inhibitor and washed; format: cell-based; details: pre-treatment 2 hours with 0.1 μM, cells washed 3 times
[8] = molecular target: T4, Steroid sulphatase; experiment: Steroid sulphatase activity in liver microsome preparations from rats treated subcutaneously; format: in vivo; design: except that the tissue source was rat liver; from tissue; host or cells: liver of female Wistar rats; details: 10 mg/kg/day s.c. for 7 days, rat liver microsomes, mean ± 1 S.D., n = 3
[9] = concentration tested 10 mM (so in the source)
[10] = concentration tested 50 mM (so in the source)
[11] = concentration tested 100 mM (so in the source)
[12] = concentration tested 1 mM (so in the source)
[13] = concentration tested 25 mM (so in the source)

% INHIBITION Sulphatase ([2]; 50 μM): 56.3% | % INHIBITION Sulphatase ([2]; 100 μM): 75.3%
Molecule: flavone-7-sulphamate

% INHIBITION Sulphatase ([2]; 1 μM): 26.8% | % INHIBITION Sulphatase ([2]; 10 μM): 89.5%
Molecule: flavone-6-sulphamate

inhibition at 10 µM [4]: 99 ± 2% | % Inhibition in Placental Microsomes at 10 μM [5]: 40±2% | % Inhibition in vivo from a single dose of 10 mg/kg [6]: 22±3%
Molecule: COc1cc(CNC(=O)CCCC/C=C/C(C)C)ccc1OS(N)(=O)=O [9b, (E) Methyl-γ-methyl-6-nonenamide-N-(3-methboxyphenyl4-O-sulphanate)]

% reduction over control (% inhibition) ([4]; inhibitor 0.001 μM): 17.3% | Steroid Sulphatase Activity ([4]; inhibitor 0.001 μM): 68.33 ± 3.2 fmol/20 hr/10^6 cells | % reduction over control (% inhibition) ([4]; inhibitor 0.01 μM): 44.3% | Steroid Sulphatase Activity ([4]; inhibitor 0.01 μM, n = 3): 46.0 ± 4.9 fmol/20 hr/10^6 cells | % reduction over control (% inhibition) ([4]; inhibitor 0.1 μM): 78.9% | Steroid Sulphatase Activity ([4]; inhibitor 0.1 μM, n = 3): 17.43 ± 4.3 fmol/20 hr/10^6 cells | % reduction over control (% inhibition) ([4]; inhibitor 1 μM): 85.6% | Steroid Sulphatase Activity ([4]; inhibitor 1 μM, n = 3): 11.89 ± 3.7 fmol/20 hr/10^6 cells | % reduction over control (% inhibition) [7]: 18.8% | Steroid Sulphatase Activity ([7]; mean ± 1 S.D., n = 3): 53.1 ± 3.4 fmol/20 hr/10^6 cells
Molecule: CN(C)S(=O)(=O)Oc1ccc2c(c1)CC[C@@H]1[C@@H]2CC[C@]2(C)C(=O)CC[C@@H]12 [Oestrone-3-N,N-dimethylsulphamate, oestrone-3-N.N-dimethylsulphamate]

Steroid Sulphatase Activity ([8]; assay substrate DHA-S): 1.71 ± 0.1 nmol/30 min/200 mg protein | Steroid Sulphatase Activity ([8]; assay substrate E1-S): 20.6 ± 0.4 nmol/30 min/200 mg protein
Molecule: C[C@]12CC[C@@H]3c4ccc(OS(=O)(=O)O)cc4CC[C@H]3[C@@H]1CCC2=O [E1-S, Oestrone-3-sulphate, reference compound]

% Inhibition MCF-7 Cells ([1]; 0.1 μM): 23% | % Inhibition MCF-7 Cells ([1]; 1.0 μM): 83% | % Inhibition MCF-7 Cells ([1]; 10.0 μM): 99%
Molecule: NS(=O)(=O)Oc1ccc(-c2coc3cc(O)cc(O)c3c2=O)cc1 [Isoflavone 5.7-dihydroxy-4′-sulphamate, 5,7-Dihydroxy Isoflavone-4′-O-Sulphamate]

% INHIBITION Sulphatase ([2]; 1 μM): 8% | % INHIBITION Sulphatase ([2]; 10 μM): 21%
Molecule: 5-hydroxy-flavone-7-sulphamate [5-hydroxy flavone-7-sulphamate]

inhibition at 10 µM [4]: 99 ± 2% | % Inhibition in Placental Microsomes at 10 μM [5]: 40±2% | % Inhibition in vivo from a single dose of 10 mg/kg [6]: 22±3%
Molecule: NS(=O)(=O)Oc1ccccc1[N+](=O)[O-] [9c, 2-Nitrophenol-O-sulfamate]

inhibition at 10 µM [4]: 99 ± 2% | % Inhibition in Placental Microsomes at 10 μM [5]: 40±2% | melting point: > 42 °C (dec.) | % Inhibition in vivo from a single dose of 10 mg/kg [6]: 22±3%
Molecule: CCCCCCCOc1ccc(OS(N)(=O)=O)cc1 [9a]

Second part, the molecule before the results:

Molecule: NS(=O)(=O)Oc1ccc(-c2coc3cc(OS(N)(=O)=O)cc(O)c3c2=O)cc1 [Isoflavone 5-hydroxy-4′,7-bissulphamate, 5-Hydroxy Isoflavone4′-O,O-Disulphamate]
% Inhibition MCF-7 Cells ([1]; 0.1 μM): 28%

Molecule: COc1cc2c(cc1OS(N)(=O)=O)CC[C@@H]1[C@@H]2CC[C@]2(C)C(=O)CC[C@@H]12 [2-methoxy EMATE]
% Inhibition (Mean) Placental Microsomes [3, 9]: 99.0% | % Inhibition (Mean) Placental Microsomes [3, 10]: 99.7% | % Inhibition (Mean) Placental Microsomes [3, 11]: 99.7%

Molecule: CCCc1c(OS(N)(=O)=O)ccc2c1CC[C@@H]1[C@@H]2CC[C@]2(C)C(=O)CC[C@@H]12 [4-n-propyl EMATE]
% Inhibition (Mean) Placental Microsomes [3, 12]: 13.7% | % Inhibition (Mean) Placental Microsomes [3, 9]: 10.2% | % Inhibition (Mean) Placental Microsomes [3, 13]: 15.7% | % Inhibition (Mean) Placental Microsomes [3, 10]: 16.3% | % Inhibition (Mean) Placental Microsomes [3, 11]: 23.7%

Molecule: C=CCc1c(OS(N)(=O)=O)ccc2c1CC[C@@H]1[C@@H]2CC[C@]2(C)C(=O)CC[C@@H]12 [4-allyl EMATE]
% Inhibition (Mean) Placental Microsomes [3, 12]: 29.1% | % Inhibition (Mean) Placental Microsomes [3, 9]: 54.2% | % Inhibition (Mean) Placental Microsomes [3, 13]: 59.0% | % Inhibition (Mean) Placental Microsomes [3, 10]: 65.1% | % Inhibition (Mean) Placental Microsomes [3, 11]: 71.9%

Molecule: C=CCc1cc2c(cc1OS(N)(=O)=O)CC[C@@H]1[C@@H]2CC[C@]2(C)C(=O)CC[C@@H]12 [2-allyl EMATE]
% Inhibition (Mean) Placental Microsomes [3, 12]: 45.6% | % Inhibition (Mean) Placental Microsomes [3, 9]: 65.4% | % Inhibition (Mean) Placental Microsomes [3, 13]: 75.3% | % Inhibition (Mean) Placental Microsomes [3, 10]: 86.6% | % Inhibition (Mean) Placental Microsomes [3, 11]: 89.6%

Molecule: NS(=O)(=O)Oc1ccc(C2CC(=O)c3c(O)cc(O)cc3O2)cc1 (centres unmarked) [5,7-dihydroxy flavanone 4′-sulphamate, 5.7-Dihydroxyflavanone 4′-O-sulphamate]
% INHIBITION Sulphatase ([2]; 0.1 μM): 30.4% | % INHIBITION Sulphatase ([2]; 1 μM): 79.1% | % INHIBITION Sulphatase ([2]; 10 μM): 98.1% | % INHIBITION Sulphatase ([2]; 10 μM, listed as 5,7-dihydroxy flavanone-4′-sulphamate): 98%

Molecule: C[C@]12CC[C@@H]3c4cc([N+](=O)[O-])c(OS(N)(=O)=O)cc4CC[C@H]3[C@@H]1CCC2=O [2-nitro EMATE]
% Inhibition (Mean) Placental Microsomes ([3]; concentration tested 0.05 mM (so in the source)): 44.5% | % Inhibition (Mean) Placental Microsomes ([3]; concentration tested 0.5 mM (so in the source)): 93.9% | % Inhibition (Mean) Placental Microsomes ([3]; concentration tested 5 mM (so in the source)): 99.0% | % Inhibition (Mean) Placental Microsomes [3, 10]: 99.4%

Molecule: COc1ccc(-c2coc3cc(OS(N)(=O)=O)cc(O)c3c2=O)cc1 [5-Hydroxy-4′-methoxyisoflavone 7-O-sulphamate]
% INHIBITION Sulphatase ([2]; 1 μM): 1% | % INHIBITION Sulphatase ([2]; 10 μM): 50.6%

Molecule: CCCc1cc2c(cc1OS(N)(=O)=O)CC[C@@H]1[C@@H]2CC[C@]2(C)C(=O)CC[C@@H]12 [2-n-propyl EMATE]
% Inhibition (Mean) Placental Microsomes [3, 12]: 21.9% | % Inhibition (Mean) Placental Microsomes [3, 9]: 43.2% | % Inhibition (Mean) Placental Microsomes [3, 13]: 47.5% | % Inhibition (Mean) Placental Microsomes [3, 10]: 61.1% | % Inhibition (Mean) Placental Microsomes [3, 11]: 69.2%
